Reference: patent US9655824B2, “Use of diphenylmethane derivatives as tyrosinase inhibitors” (Symrise AG, priority 2003, dated 2017)

Experiments:
Format in all cases: cell-based
[1] = tested on: B16V mouse melanoma cells; test: Lightening effect: inhibition of pigmentation in α-MSH-stimulated B16V cells; conditions: for IC50: Mus musculus, B16V cells, 10 nM α-MSH, 96 h, absorption 400 nm; for Activity greater than that of kojic acid by a factor: ratio of IC50 values versus kojic acid
Method: Test method: B16V mouse melanoma cells are distributed in a 96-well micro titre plate in a concentration of 5×10^3 cells/well. After culturing for 24 h at 37° C. and 5% CO2 in RPMI medium, enriched with 10% foetal calf serum, various concentrations of the test substances and 10 nM α-MSH (α-melanocyte stimulating hormone) are added and the plates are incubated for a further 96 h. The maximum concentration of the test substances used corresponds to 0.1 times the value of the particular IC20 value from the cytotoxicity assay. A parallel incubation was carried out with kojic acid as standard in concentrations of 0.01 mM, 0.1 mM and 1 mM. After the incubation, SDS and NaOH (final concentrations: 1 mM and 1M, respectively) are added to the culture medium and the adsorption (A) is measured at 400 nm after 3 h. The inhibition of the pigmentation in the presence of the test compounds or kojic acid was calculated in accordance with the following equation: Inhibition of pigmentation (%)=100−[(Atest compound/Acontrol)×100] The IC50 is calculated for each test compound from the inhibition of the pigmentation (%) in a series of dilutions of test compounds. The IC50 is the concentration of a test compound at which the pigmentation is 50% inhibited.

[2] = Cytotoxicity determination (MTT), 3T3 cells; conditions: mouse, 3T3 fibrosarcoma cells; 3T3 cells, 48 h incubation, MTT
Method: (§1) 3T3 fibrosarcoma cells or B16V mouse melanoma cells are distributed in a 96-well microtitre plate in a concentration of 1×10^4 cells/well (3T3) or 2×10^4 cells/well (B16V). After culturing for 24 h at 37° C. and 5% CO2 in DMEM medium (3T3 cells) or RPMI medium (B16V cells), enriched with 10% foetal calf serum, the medium is removed by suction. Various concentrations of the test substances, dissolved in fresh medium enriched with 5% foetal calf serum, are added and the plates are incubated for a further 48 h. A parallel incubation is carried out using SDS as standard in concentrations of 0.01 mM, 0.1 mM, 1 mM and 10 mM. After the incubation, the medium is removed by suction and the cells are incubated for with (sic) 2 h with MTT (3-[4,5-dimethylthiazol-2-yl]2,5-diphenyl tetrazolium bromide). After extraction of the dye with SDS acidified with acetic acid in DMSO (10 min), the absorption (A) at 570 nm is measured.
(§2) Average value and standard deviation of the controls, the blanks and the samples are calculated. The average value of the blanks is substracted from the average values of the controls and samples. The viability of the cells is indicated as a percentage with respect to the controls (100%): Viability (%)=(Atest compound/Acontrol)×100]

[3] = Cytotoxicity determination (MTT), B16V cells; conditions: mouse, B16V melanoma cells, 48 h incubation
Method: as §1, §2

3T3 fibrosarcoma cells = test: Cytotoxicity determination (MTT), 3T3 cells; conditions: approximately comparable to 4-hexylresorcinol
Method: as §1, §2

Compound | IC50 [1] [µM] | Activity greater than that of kojic acid by a factor [1] | IC20 at 48 h [2] [µM] | IC50 at 48 h [2] [µM] | IC20 at 48 h [3] [µM] | IC50 at 48 h [3] [µM] | Effectiveness compared with 4-hexylresorcinol ([1]; versus 4-hexylresorcinol) | Cytotoxicity (in words) (3T3 fibrosarcoma cells)
CCCCCCc1ccc(O)cc1O [4-hexylresorcinol] | 5.2 | approximately 87 | 70 | 140 | – | – | – | –
O=c1cc(CO)occ1O [Kojic acid, 5-hydroxy-2-hydroxymethyl-4-pyranone] | – | – | > 100000 | > 100000 | > 100000 | > 100000 | – | –
CC(c1ccccc1)c1ccc(O)cc1O (stereo not shown) [Styrylresorcinol (4), 4-(1-phenylethyl)-1,3-dihydroxybenzene] | 2.1 | approximately 215 | 70 | 150 | 20 | 140 | more than twice as effective | relatively low cytotoxicity
